Patent US11738082B2, “High concentration protein formulations with reduced viscosity” (Bhami's Research Laboratory, Pvt. Ltd., priority 2017, dated 2023)
Residues, ends and D or L forms follow the SMILES beside them.

Key:
Rituximab (RITUXAN®) [1] = test: Size Exclusion Chromatography of formulated Rituximab on storage; type: physicochemical; settings: storage at 25° C., formulated with tryptophan + nicotinic acid (acid form), 250 mg/mL, SEC
Procedure: The collected protein sample was stored at 4° C. […] The protein concentrations were experimentally determined using the extinction coefficient of 1.7

Rituximab (RITUXAN®) [2] = test: Percent reduction in aggregation of Rituximab by Size Exclusion Chromatography; type: physicochemical; settings: with nicotinic acid and tryptophan, 250-275 mg/mL, versus control at 0 time point = 100%
Procedure: To the buffered antibody solutions, different aggregation reducing-agents were added individually or in combination and mixed until complete dissolution. […] The collected protein sample was stored at 4° C. […] The amount of reduction in aggregation is calculated setting the values at 0 time point equal to 100% in control (without any aggregation-reducing agent) and the reduction in aggregation in test samples (with aggregation-reducing agent) is expressed as percent reduction when compared to control at 0 time point.

Etanercept (ENBREL®) = molecular target: T1, Etanercept (ENBREL®) (Homo sapiens, UniProt P20333); test: Viscosity of Etanercept solutions (VISCOlab5000 or DV2T cone and plate viscometer); type: physicochemical; settings: for Viscosity, cP: 25 mM phosphate buffer pH 6.0, 25° C.
T1 construct: purchased ENBREL®
T1 sequence (P20333 with tags, fused parts or gaps limits assumed): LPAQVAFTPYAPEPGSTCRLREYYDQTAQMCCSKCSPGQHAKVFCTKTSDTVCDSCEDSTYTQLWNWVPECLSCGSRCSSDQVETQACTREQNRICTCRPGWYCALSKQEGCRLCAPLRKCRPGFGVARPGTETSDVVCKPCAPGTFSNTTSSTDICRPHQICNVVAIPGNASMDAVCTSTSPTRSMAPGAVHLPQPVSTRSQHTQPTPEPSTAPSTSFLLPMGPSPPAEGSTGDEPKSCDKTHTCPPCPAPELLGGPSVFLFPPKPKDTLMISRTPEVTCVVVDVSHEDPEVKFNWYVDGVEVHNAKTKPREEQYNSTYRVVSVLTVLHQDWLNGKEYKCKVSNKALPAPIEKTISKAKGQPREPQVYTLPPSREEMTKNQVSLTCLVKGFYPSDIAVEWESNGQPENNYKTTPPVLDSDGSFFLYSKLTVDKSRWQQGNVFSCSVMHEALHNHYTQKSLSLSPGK
Procedure: Commercially obtained Etanercept, ENBREL®, 25 mg as a lyophilized powder (25 mg Etanercept, 40 mg mannitol, 10 mg sucrose, and 1.2 mg Tromethamine and for reconstitution 0.9% benzyl alcohol in water) was dialyzed against 25 mM phosphate buffer, pH 6.0 for 24 hr at 4° C. with three changes. To the dialysed Etanercept different viscosity-reducing agent(s) was added individually or in combination and mixed until complete dissolution. […] The collected protein sample was stored at 4° C.
[formula] at 280 nm. […] Results
Commercially obtained Etanercept, ENBREL®, 25 mg as a lyophilized powder (25 mg Etanercept, 40 mg mannitol, 10 mg sucrose, and 1.2 mg Tromethamine and for reconstitution 0.9% benzyl alcohol in water) was dialyzed against 25 mM phosphate buffer, pH 6.0 for 24 hr at 4° C. with three changes.
To the dialysed samples of above protein agents, a combination of viscosity-reducing agents nicotinic acid (acid form) and tryptophan were added and mixed until complete dissolution. […] The collected protein samples were stored at 4° C.

[3] = system: Human Gamma Globulin (HGG), GLOBUCEL®; test: Viscosity of aqueous solutions of Human Gamma Globulin (Cambridge VISCOlab5000 or DV2T cone and plate viscometer); settings: for Viscosity, cP: excipient 10 mg/mL, 25° C.
Procedure: Commercially obtained human gamma globulin (HGG), GLOBUCEL® (50 mg/mL) containing pharmaceutical excipients (Maltose) was dialyzed against water for 24 hr at 4° C. with three changes. To the aqueous solution of HGG, either histidine or phosphate or citrate buffer was added from the stock concentration of 1000 mM for histidine buffer or 1000 mM for citrate buffer or 1000 mM for phosphate buffer, pH 6.0 to get a final concentration of 25 mM each. The HGG solutions in various buffers were concentrated to a final volume of less than 150 μL using Vivaspin centrifugal concentrators (Sartorius). The collected protein sample was stored at 4° C. […] The protein concentrations were experimentally determined using the extinction coefficient of 1.4
[formula] at 280 nm. The viscosities of the solution were measured either using a Cambridge Viscometer, VISCOlab5000 using 70 μL of sample at 25° C. or using a DV2T cone and plate viscometer using 1.5 mL of sample at 25° C. at extrapolated zero shear rate.
Commercially obtained human gamma globulin (HGG), GLOBUCEL® (50 mg/mL) containing pharmaceutical excipients (Maltose) was dialyzed against water for 24 hr at 4° C. with three changes. To the aqueous solution of HGG, either citrate-phosphate buffer pH 5.0 or citrate-phosphate buffer pH 6.0 or citrate-phosphate buffer pH 7.0 was added from the stock concentration of 1000 mM for citrate buffer at pH 5.0 or pH 6.0 or pH 7.0 to get a final concentration of 25 mM each. The HGG solutions in various pH buffers were concentrated to a final volume of less than 150 μL using Vivaspin centrifugal concentrators (Sartorius). The collected protein sample was stored at 4° C. […] The protein concentrations were experimentally determined using the extinction coefficient of 1.4
Commercially obtained human gamma globulin (HGG), GLOBUCEL® (50 mg/mL) containing pharmaceutical excipients (Maltose) was dialyzed against water for 24 hr at 4° C. with three changes. To the aqueous solution of HGG, phosphate/citrate/histidine Buffer was added from the stock concentration of 1000 mM phosphate/citrate/histidine buffer, pH 6.0 to get a final concentration of 25 mM. To the buffered HGG different amino acid or its derivative was added individually and mixed until complete dissolution. The excipient containing HGG was concentrated to a final volume of less than 150 μL using Vivaspin centrifugal concentrators (Sartorius). The collected protein sample was stored at 4° C. […] The protein concentrations were experimentally determined using the extinction coefficient of 1.4
Commercially obtained human gamma globulin (HGG), GLOBUCEL® (50 mg/mL) containing pharmaceutical excipients (Maltose) was dialyzed against water for 24 hr at 4° C. with three changes. To the aqueous solution of HGG, phosphate/citrate/histidine Buffer was added from the stock concentration of 1000 mM phosphate/citrate/histidine buffer, pH 6.0 to get a final concentration of 25 mM. To the buffered HGG, different nucleosides or nucleotides or its derivative was added individually and mixed until complete dissolution. The excipient containing HGG was concentrated to a final volume of less than 150 μL using Vivaspin centrifugal concentrators (Sartorius). The collected protein sample was stored at 4° C.

Bevacizumab (AVASTIN®) = test: Size Exclusion Chromatography of formulated Bevacizumab on storage; type: physicochemical; settings: storage at 25° C., formulated with tryptophan + nicotinic acid (acid form), SEC
Procedure: The collected protein sample was stored at 4° C. […] Reported protein concentrations represent the range of all protein samples in each Table or Figure. Specifically, reported values are the median plus or minus half the range. The protein concentrations were experimentally determined using the extinction coefficient of 1.54

[4] = HGG 220 mg/mL, histidine buffer pH 6.0
[5] = HGG 220 mg/mL, phosphate buffer pH 6.0

Compound: Rituximab: Commercially obtained Rituximab, RITUXAN®, dialyzed against 25 mM phosphate buffer, pH 6.0
- Aggregation peak area (%) (Rituximab (RITUXAN®) [1]; 0 day): 1.027%
- Degradation peak area (%) (Rituximab (RITUXAN®) [1]; 0 day): Nil
- Aggregation peak area (%) (Rituximab (RITUXAN®) [1]; 7 days): 0.96%
- Degradation peak area (%) (Rituximab (RITUXAN®) [1]; 7 days): Nil
- Percent reduction in aggregation (Rituximab (RITUXAN®) [2]; After 24 hours): 90%
- Percent reduction in aggregation (Rituximab (RITUXAN®) [2]; After 48 hours): 100%

Compound: Etanercept
- Viscosity, cP (Etanercept (ENBREL®); Etanercept 50 mg/mL, with 10 mg/mL nicotinic acid (acid form) + 6 mg/mL tryptophan): 2 cP
- Viscosity, cP (Etanercept (ENBREL®); Etanercept 50 mg/mL, without excipient): 35 cP
- Viscosity, cP (Etanercept (ENBREL®); Etanercept 100 mg/mL, with 10 mg/mL nicotinic acid (acid form) + 6 mg/mL tryptophan): 3 cP
- Viscosity, cP (Etanercept (ENBREL®); Etanercept 100 mg/mL, without excipient): 72 cP
- Viscosity, cP (Etanercept (ENBREL®); Etanercept 150 mg/mL, with 10 mg/mL nicotinic acid (acid form) + 6 mg/mL tryptophan): 11 cP
- Viscosity, cP (Etanercept (ENBREL®); Etanercept 150 mg/mL, without excipient): 135 cP
- Viscosity, cP (Etanercept (ENBREL®); Etanercept 175 mg/mL, with 10 mg/mL nicotinic acid (acid form) + 6 mg/mL tryptophan): 17 cP
- Viscosity, cP (Etanercept (ENBREL®); Etanercept 175 mg/mL, without excipient): 160 cP
- Viscosity, cP (Etanercept (ENBREL®); Etanercept 200 mg/mL, with 10 mg/mL nicotinic acid (acid form) + 6 mg/mL tryptophan): 23 cP
- Viscosity, cP (Etanercept (ENBREL®); Etanercept 200 mg/mL, without excipient): 230 cP
- Viscosity, cP (Etanercept (ENBREL®); Etanercept 225 mg/mL, with 10 mg/mL nicotinic acid (acid form) + 6 mg/mL tryptophan): 40 cP
- Viscosity, cP (Etanercept (ENBREL®); Etanercept 225 mg/mL, without excipient): 345 cP
- Viscosity, cP (Etanercept (ENBREL®); Etanercept 250 mg/mL, with 10 mg/mL nicotinic acid (acid form) + 6 mg/mL tryptophan): 65 cP
- Viscosity, cP (Etanercept (ENBREL®); Etanercept 250 mg/mL, without excipient): 439 cP
- Viscosity, cP (Etanercept (ENBREL®); Etanercept 275 mg/mL, with 10 mg/mL nicotinic acid (acid form) + 6 mg/mL tryptophan): 77 cP
- Viscosity, cP (Etanercept (ENBREL®); Etanercept 275 mg/mL, without excipient): 1130 cP
- Viscosity, cP (Etanercept (ENBREL®); Etanercept 300 mg/mL, with 10 mg/mL nicotinic acid (acid form) + 6 mg/mL tryptophan): 139 cP
- magnitude of viscosity-reducing effects (Etanercept (ENBREL®); Etanercept 275±10 mg/mL, nicotinic acid (acid form) and tryptophan added to phosphate buffer): 14.6 fold

Compound: O=C([O-])c1cccnc1.[Na+] [Nicotinic acid Sodium Salt]
- Viscosity (cP) @ 25° C. ([3]; HGG 202 mg/mL, excipient 10 mg/mL (69 mM), 25 mM phosphate buffer pH 6.0): 29 cP
- Viscosity (cP) @ 25° C. ([3]; HGG 203 mg/mL, excipient 10 mg/mL (69 mM), 25 mM histidine buffer pH 6.0): 21 cP
- Viscosity, cP [3, 4]: 81 cP
- Viscosity, cP [3, 5]: 95 cP
- Viscosity, cP ([3]; HGG 225 mg/mL (footnote), citrate buffer pH 6.0): 71^$ cP
- Viscosity (cP) @ 25° C. ([3]; HGG 225 mg/mL, excipient 10 mg/mL (69 mM), 25 mM phosphate buffer pH 6.0): 95 cP
- Viscosity (cP) @ 25° C. ([3]; HGG 235 mg/mL, excipient 10 mg/mL (69 mM), 25 mM histidine buffer pH 6.0): 140 cP
- Viscosity (cP) @ 25° C. ([3]; HGG 236 mg/mL, excipient […] (81 mM), 25 mM histidine buffer pH 6.0): 83 cP
- Viscosity (cP) @ 25° C. ([3]; HGG […], excipient 10 mg/mL (69 mM), 25 mM citrate buffer pH 6.0): 71 cP

Compound: NC(=O)c1cccnc1 [Nicotinamide]
- Viscosity (cP) @ 25° C. ([3]; HGG 105 mg/mL, excipient 10 mg/mL (82 mM), 25 mM histidine buffer pH 6.0): 26 cP
- Viscosity (cP) @ 25° C. ([3]; HGG 191 mg/mL, excipient 10 mg/mL (82 mM), 25 mM phosphate buffer pH 6.0): 21 cP
- Viscosity (cP) @ 25° C. ([3]; HGG 219 mg/mL, excipient 10 mg/mL (82 mM), 25 mM citrate buffer pH 6.0): 72 cP
- Viscosity, cP ([3]; HGG 220 mg/mL, citrate buffer pH 6.0): 72 cP
- Viscosity, cP [3, 4]: 43 cP
- Viscosity, cP [3, 5]: 49 cP
- Viscosity (cP) @ 25° C. ([3]; HGG 224 mg/mL, excipient 10 mg/mL (82 mM), 25 mM histidine buffer pH 6.0): 43 cP
- Viscosity (cP) @ 25° C. ([3]; HGG 250 mg/mL, excipient 10 mg/mL (82 mM), 25 mM phosphate buffer pH 6.0): 76 cP

Compound: Bevacizumab: Commercially obtained Bevacizumab, AVASTIN®, dialyzed against 25 mM phosphate buffer, pH 6.0
- Degradation peak area (%) (Bevacizumab (AVASTIN®); 0 day): Nil
- Standard peak area (%) (Bevacizumab (AVASTIN®); 0 day): 99.39%
- Degradation peak area (%) (Bevacizumab (AVASTIN®); 7 days): Nil
- Standard peak area (%) (Bevacizumab (AVASTIN®); 7 days): 99.118%

Compound: CC(=O)C(=O)[O-].[Na+] [Pyruvate sodium salt]
- Viscosity (cP) @ 25° C. ([3]; HGG 213 mg/mL, excipient 10 mg/mL (91 mM), 25 mM phosphate buffer pH 6.0): 171 cP

Compound: N[C@@H](Cc1c[nH]cn1)C(=O)O [Histidine]
- Viscosity (cP) @ 25° C. ([3]; HGG 180 mg/mL, excipient 10 mg/mL (65 mM), 25 mM phosphate buffer pH 6.0): 31 cP

Compound: Cl.N [Ammonium chloride]
- Viscosity (cP) @ 25° C. ([3]; HGG 182 mg/mL, excipient 5.35 mg/mL (100 mM), 25 mM phosphate buffer pH 6.0): 53 cP
- Viscosity (cP) @ 25° C. ([3]; HGG 205 mg/mL, excipient 40 mg/mL (747 mM), 25 mM phosphate buffer pH 6.0): 21 cP

Compound: COC(=O)[C@H](Cc1ccccc1)NC(=O)[C@@H](N)CC(=O)O [Aspartame] (H-Asp-Phe-OMe)
- Viscosity (cP) @ 25° C. ([3]; HGG 140 mg/mL, excipient 10 mg/mL (34 mM), 25 mM citrate buffer pH 6.0): 51 cP
- Viscosity (cP) @ 25° C. ([3]; HGG 218 mg/mL, excipient 10 mg/mL (34 mM), 25 mM phosphate buffer pH 6.0): 143 cP

Compound: COC(=O)c1cccnc1 [Methylnicotinate]
- Viscosity (cP) @ 25° C. ([3]; HGG 216 mg/mL, excipient 10 mg/mL (73 mM), 25 mM phosphate buffer pH 6.0): 84 cP

Compound: O=c1cc[nH]c(=O)[nH]1 [Uracil]
- Viscosity (cP) @ 25° C. ([3]; HGG 235 mg/mL, excipient 1 mg/mL (9 mM), 25 mM phosphate buffer pH 6.0): 140 cP

Compound: NCC(=O)O [Glycine]
- Viscosity (cP) @ 25° C. ([3]; HGG 206 mg/mL, excipient 10 mg/mL ([…]), 25 mM phosphate buffer pH 6.0): 63 cP
- Viscosity (cP) @ 25° C. ([3]; HGG 208 mg/mL, excipient 10 mg/mL ([…]), 25 mM citrate buffer pH 6.0): 73 cP
- Viscosity (cP) @ 25° C. ([3]; HGG 228 mg/mL, excipient 10 mg/mL ([…]), 25 mM phosphate buffer pH 6.0): 186 cP

Compound: N=C(N)NCCC[C@H](N)C(=O)O [Arginine]
- Viscosity (cP) @ 25° C. ([3]; HGG 205 mg/mL, excipient 10 mg/mL (58 mM), 25 mM phosphate buffer pH 6.0): 85 cP
- Viscosity (cP) @ 25° C. ([3]; HGG 220 mg/mL, excipient 10 mg/mL (58 mM), 25 mM phosphate buffer pH 6.0): 197 cP
- Viscosity (cP) @ 25° C. ([3]; HGG 247 mg/mL, excipient 10 mg/mL (58 mM), 25 mM citrate buffer pH 6.0): 87 cP
